What is called Ki is the dissociation constant of the complex between target and ligand, obtained from inhibition or displacement. Usually inhibition stands for how much of the control response was suppressed.

For one experiment, the target named is T1, human orexin 1 receptor (Homo sapiens, UniProt O43613).
T1 construct: expressed in transfected cells
T1 sequence (O43613 1-425): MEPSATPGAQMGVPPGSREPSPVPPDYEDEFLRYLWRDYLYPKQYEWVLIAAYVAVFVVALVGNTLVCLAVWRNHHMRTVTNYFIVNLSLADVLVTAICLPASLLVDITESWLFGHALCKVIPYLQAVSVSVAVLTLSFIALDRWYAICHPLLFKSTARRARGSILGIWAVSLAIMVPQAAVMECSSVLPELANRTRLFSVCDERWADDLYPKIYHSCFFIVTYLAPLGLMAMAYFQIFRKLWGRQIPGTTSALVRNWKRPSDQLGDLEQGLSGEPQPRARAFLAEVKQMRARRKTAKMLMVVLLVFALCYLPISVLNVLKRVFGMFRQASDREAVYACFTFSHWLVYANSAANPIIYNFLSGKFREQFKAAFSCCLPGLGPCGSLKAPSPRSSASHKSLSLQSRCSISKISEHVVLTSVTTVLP
The experiment can be described thus: Calcium accumulation in cells (FLIPR), antagonism of orexin A, human orexin 1 receptor. The experiment is classed as cell-based. The note with it: for Ki: calcium accumulation, antagonism of orexin A, Cheng-Prusoff corrected, read-out: FLIPR hOx1R Ki; for inhibition at 10 µM: measured at a concentration of 10 μM of compound, read-out: FLIPR hOx1R % inhibition.

The target of another experiment is T2, human orexin 2 receptor (Homo sapiens, UniProt O43614).
T2 construct: expressed in transfected cells
T2 sequence (O43614 1-444): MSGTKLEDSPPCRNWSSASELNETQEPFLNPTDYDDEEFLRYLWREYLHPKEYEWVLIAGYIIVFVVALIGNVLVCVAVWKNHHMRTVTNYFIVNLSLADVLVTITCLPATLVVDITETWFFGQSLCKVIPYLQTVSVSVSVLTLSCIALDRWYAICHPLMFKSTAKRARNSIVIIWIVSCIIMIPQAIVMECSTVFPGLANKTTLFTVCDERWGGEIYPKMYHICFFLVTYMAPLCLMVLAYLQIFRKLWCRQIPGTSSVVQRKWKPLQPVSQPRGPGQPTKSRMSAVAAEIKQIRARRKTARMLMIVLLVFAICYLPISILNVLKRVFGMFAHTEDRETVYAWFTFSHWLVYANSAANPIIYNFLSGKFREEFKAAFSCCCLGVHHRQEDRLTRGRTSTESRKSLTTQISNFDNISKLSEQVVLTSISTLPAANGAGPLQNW
The experiment can be described thus: Calcium accumulation in cells (FLIPR), antagonism of orexin A, human orexin 2 receptor. The note with it: calcium accumulation, antagonism of orexin A, Cheng-Prusoff corrected; read-out: FLIPR hOx2R Ki. The class given is cell-based.

In the case of `COc1ccnc(N2CCC3(CC2)OCCN(Cc2c[nH]c4ccccc24)C3=O)n1` [Example 2.5, 4-((1H-Indol-3-yl)methyl)-9-(4-methoxypyrimidin-2-yl)-1-oxa-4,9-diazaspiro[5.5]undecan-5-one], the Ki amounted to 1.55 µM at human orexin 1 receptor and 0.061 µM on human orexin 2 receptor.
Regarding `O=C1OCC2(CCN(c3cnc4ccccc4n3)CC2)N1Cc1c[nH]c2ccccc12` [Example 8.21], the inhibition at 10 µM on human orexin 1 receptor turned out to be 33%. The Ki on human orexin 2 receptor was determined as 0.48 µM.
Consider `Cc1cc(C)nc(N2CCC3(CC2)NCCN(Cc2n[nH]c4ccccc24)C3=O)n1` [Example 1.50, 4-((1H-Indazol-3-yl)methyl)-9-(4,6-dimethylpyrimidin-2-yl)-1,4,9-triazaspiro[5.5] undecan-5-one], for which the inhibition constant Ki on human orexin 1 receptor is 1.18 µM; on human orexin 2 receptor, 0.086 µM.
For `COc1cc(C)nc(N2CCC3(CCN(Cc4cccc5[nH]ccc45)C3=O)C2)n1` (stereo not shown) [Example 5.10, 2-((1H-Indol-4-yl)methyl)-7-(4-methoxy-6-methylpyrimidin-2-yl)-2,7-diazaspiro[4.4]nonan-1-one], in that order: 1.34 µM and 0.629 µM.
Consider `COc1ccnc(N2CCC3(CCN(Cc4c[nH]c5ccccc45)C3=O)C2)n1` (stereo not shown) [Example 5.1, 2-((1H-indol-3-yl)methyl)-7-(4-methoxypyrimidin-2-yl)-2,7-diazaspiro[4.4]nonan-1-one], for which the inhibitory constant (Ki) at human orexin 1 receptor was 2.14 µM; at human orexin 2 receptor, 0.132 µM.
`Cc1ccnc(N2CCC3(CC2)COCC(=O)N3Cc2cccc3[nH]ccc23)n1` [Example 8.19, 1-((1H-Indol-4-yl)methyl)-9-(4-methylpyrimidin-2-yl)-4-oxa-1,9-diazaspiro[5.5]undecan-2-one]: the inhibition at 10 µM at human orexin 1 receptor amounted to 28%. Moreover, the Ki on human orexin 2 receptor was found to be 0.697 µM.
Take `Cc1cc(C)nc(N2CCC3(CC2)NCCN(Cc2ccccc2-c2ncc(C)o2)C3=O)n1` [Example 1.64, 9-(4,6-dimethyl-pyrimidin-2-yl)-4-(2-(5-methyloxazol-2-yl)benzyl)-1,4,9-triazaspiro[5.5] undecan-5-one]: the inhibition at 10 µM on human orexin 1 receptor was 32%. At human orexin 2 receptor, the inhibition constant (Ki) came out at 0.423 µM.
Consider `COc1cccc(N2CCC3(CCN(Cc4c[nH]c5ccccc45)C3=O)CC2)n1` [Example 3.4, 2-((1H-Indol-3-yl)methyl)-8-(6-methoxypyridin-2-yl)-2,8-diazaspiro[4.5]decan-1-one], for which the figures for the Ki on human orexin 1 receptor and at human orexin 2 receptor were 3.77 µM and 0.287 µM, respectively.
For `Cn1ccc2ccnc(N3CCC4(CCN(Cc5c[nH]c6ccccc56)C4=O)C3)c21` (stereo not shown) [Example 5.32, 2-((1H-indol-3-yl)methyl)-7-(1-methyl-1H-pyrrolo[2,3-c]pyridin-7-yl)-2,7-diazaspiro[4.4]nonan-1-one], the Ki at human orexin 1 receptor came to 4.47 µM; at human orexin 2 receptor it was 2.29 µM.
Consider `N#Cc1cccc(N2CCC3(CC2)COCC(=O)N3Cc2cccc3[nH]ccc23)n1` [Example 8.17, 6-(1-((1H-Indol-4-yl)methyl)-2-oxo-4-oxa-1,9-diazaspiro[5.5]undecan-9-yl)picolinonitrile], for which the inhibition at 10 µM on human orexin 1 receptor was 40%. Also, the Ki at human orexin 2 receptor amounted to 0.584 µM.
As for `COc1cccc(-c2oc(C)nc2CN2CCNC3(CCN(c4nccc(C)n4)CC3)C2=O)c1` [Example 1.15, 4-((5-(3-Methoxyphenyl)-2-methyloxazol-4-yl)methyl)-9-(4-methylpyrimidin-2-yl)-1,4,9-triazaspiro[5.5] undecan-5-one], the inhibition at 10 µM on human orexin 1 receptor amounted to 44%. For the same compound, the inhibition constant Ki at human orexin 2 receptor stood at 0.107 µM.
As for `Cc1cncc(N2CCC3(CC2)COCC(=O)N3Cc2cccc3[nH]ccc23)n1` [Example 8.14, 1-((1H-Indol-4-yl)methyl)-9-(6-methylpyrazin-2-yl)-4-oxa-1,9-diazaspiro[5.5]undecan-2-one], the inhibition at 10 µM at human orexin 1 receptor was determined as 14%. In addition, the inhibition constant Ki on human orexin 2 receptor stood at 0.506 µM.
Take `COc1cc(C)nc(N2CCC3(CCN(Cc4c[nH]c5ccccc45)C3=O)C2)n1` (stereo not shown) [Example 5.4, 2-((1H-indol-3-yl)methyl)-7-(4-methoxy-6-methylpyrimidin-2-yl)-2,7-diazaspiro[4.4]nonan-1-one]: the Ki on human orexin 1 receptor was 1.05 µM; at human orexin 2 receptor it was 0.119 µM.
Turning to `Cn1ccnc1-c1ccnc(N2CCC3(CCN(Cc4c[nH]c5ccccc45)C3=O)C2)n1` (stereo not shown) [Example 5.22, 2-((1H-indol-3-yl)methyl)-7-(4-(1-methyl-1H-imidazol-2-yl)pyrimidin-2-yl)-2,7-diazaspiro[4.4]nonan-1-one], the inhibitory constant (Ki) at human orexin 1 receptor turned out to be 0.923 µM; on human orexin 2 receptor it was 0.489 µM.
As for `Cc1ccnc(N2CCC3(CC2)NCCN(Cc2nc(C)oc2-c2ccccc2)C3=O)n1` [Example 1.20, 9-(4-Methyl-pyrimidin-2-yl)-4-((2-methyl-5-phenyloxazol-4-yl)methyl)-1,4,9-triazaspiro[5.5] undecan-5-one], at human orexin 1 receptor, the inhibition at 10 µM was found to be 12%. In addition, the inhibitory constant (Ki) at human orexin 2 receptor came out at 1.84 µM.
As to `N#Cc1ccnc(N2CCC3(CC2)COCC(=O)N3Cc2cccc3[nH]ccc23)c1` [Example 8.16, 2-(1-((1H-Indol-4-yl)methyl)-2-oxo-4-oxa-1,9-diazaspiro[5.5]undecan-9-yl)isonicotinonitrile], the inhibition at 10 µM at human orexin 1 receptor was less than 10%. Also, on human orexin 2 receptor, the Ki turned out to be 1.02 µM.
As for `Cc1cc(C)nc(N2CCC3(CC2)OCCN(Cc2nn(C)nc2-c2ccccc2)C3=O)n1` [Example 2.12, 9-(4,6-Dimethylpyrimidin-2-yl)-4-((2-methyl-5-phenyl-2H-1,2,3-triazol-4-yl)methyl)-1-oxa-4,9-diazaspiro[5.5]undecan-5-one], the inhibition at 10 µM on human orexin 1 receptor was determined as 16%. Further, at human orexin 2 receptor, the Ki worked out at 0.364 µM.
For the compound `O=C1N(Cc2c[nH]c3ccccc23)CCC12CCCN(c1cnc3ccccc3n1)C2` (stereo not shown) [Example 6.1], the Ki at human orexin 1 receptor turned out to be 1.13 µM; at human orexin 2 receptor, 0.639 µM.
Take `Cc1cc(C)nc(N2CCC3(CC2)NCCN(Cc2nocc2-c2ccccc2)C3=O)n1` [Example 1.81, 9-(4,6-dimethyl-pyrimidin-2-yl)-4-((4-phenyl-isoxazol-3-yl)methyl)-1,4,9-triazaspiro[5.5] undecan-5-one]: the inhibition at 10 µM on human orexin 1 receptor was 33%. Further, the inhibition constant Ki on human orexin 2 receptor is 2.19 µM.
For the compound `Cc1cc(C)nc(N2CCC3(CCN(Cc4nn(C)nc4-c4ccccc4)C3=O)CC2)n1` [Example 3.24, 8-(4,6-dimethylpyrimidin-2-yl)-2-((2-methyl-5-phenyl-2H-1,2,3-triazol-4-yl)methyl)-2,8-diazaspiro[4.5]decan-1-one], on human orexin 1 receptor, the inhibition at 10 µM is 25%. Moreover, the Ki at human orexin 2 receptor is 0.117 µM.
Turning to `COCc1ccc(-c2cn(C)nc2CN2CCNC3(CCN(c4nc(C)cc(C)n4)CC3)C2=O)cc1` [Example 1.51, 9-(4,6-Dimethyl-pyrimidin-2-yl)-4-((4-(4-(methoxymethyl)phenyl)-1-methyl-1H-pyrazol-3-yl)methyl)-1,4,9-triazaspiro[5.5] undecan-5-one], at human orexin 1 receptor, the inhibition at 10 µM is less than 10%. Also, the Ki on human orexin 2 receptor came to 1.24 µM.
As for `Cc1ccnc(N2CCC3(CCN(Cc4c[nH]c5ccccc45)C3=O)C2)n1` (stereo not shown) [Example 5.6, 2-((1H-Indol-3-yl)methyl)-7-(4-methylpyrimidin-2-yl)-2,7-diazaspiro[4.4]nonan-1-one], the inhibition at 10 µM at human orexin 1 receptor was found to be 33%. The Ki at human orexin 2 receptor came to 0.393 µM.
Consider `COCc1cccc(-c2oc(C)nc2CN2CCNC3(CCN(c4nc(C)cc(OC)n4)CC3)C2=O)c1` [Example 1.32, 9-(4-Methoxy-6-methylpyrimidin-2-yl)-4-((5-(3-(methoxymethyl)phenyl)-2-methyl-oxazol-4-yl)methyl)-1,4,9-triazaspiro[5.5] undecan-5-one], for which the Ki on human orexin 1 receptor came out at 2.84 µM; on human orexin 2 receptor, 0.084 µM.
With `Cc1cc(C)nc(N2CCC3(CC2)NCCN(Cc2nc(C)oc2-c2ccccc2)C3=O)n1` [Example 1.19, 9-(4,6-Dimethyl-pyrimidin-2-yl)-4-((2-methyl-5-phenyloxazol-4-yl)methyl)-1,4,9-triazaspiro[5.5] undecan-5-one], the figures for the Ki at human orexin 1 receptor and at human orexin 2 receptor were 2.65 µM and 0.25 µM, respectively.
For `Cc1cc(C)nc(N2CCC3(CC2)C(=O)N(Cc2c[nH]c4ccccc24)CCN3C)n1` [Example 1.2, 4-((1H-indol-3-yl)methyl)-9-(4,6-dimethylpyrimidin-2-yl)-1-methyl-1,4,9-triazaspiro[5.5]undecan-5-one], in that order: 3.65 µM and 0.449 µM.
For `Cc1cc(C)nc(N2CCC3(CC2)NCCN(Cc2ccccc2-c2nc(C)no2)C3=O)n1` [Example 1.69, 9-(4,6-dimethyl-pyrimidin-2-yl)-4-(2-(3-methyl-1,2,4-oxadiazol-5-yl)benzyl)-1,4,9-triazaspiro[5.5] undecan-5-one], the inhibition at 10 µM at human orexin 1 receptor was found to be 13%. Moreover, the Ki at human orexin 2 receptor was determined as 0.235 µM.

The values are drawn from US20120165331A1, “Di/tri-aza-spiro-C9-C11alkanes” (priority 2010, published 2012).
